Reference: patent US20190053492A1, “SUBSTITUTED PYRIDINE COMPOUNDS AS PESTICIDES” (Bayer CropScience Aktiengesellschaft, priority 2016, published 2019)
Read-outs that look alike come from different tables or passages of the source.

Assays:
[1] = log P by HPLC on reversed-phase column (C 18), EEC Directive 79/831 Annex V.A8; assay type: physicochemical; details: 55° C.; for LOGP_HCOOH: log P (HCOOH); for chromatographic logP: reversed-phase HPLC column (C 18)
Experimental: Temperature: 55° C. […] Called log P (HCOOH) in the table. […] Called log P (neutral) in the table.

Ctenocephalides felis = Ctenocephalides felis oral test; assay type: in vivo; details: application rate 100 ppm in citrated cattle blood, after 2 days, adult cat fleas
Experimental: Ctenocephalides felis—Oral Test Solvent: dimethyl sulphoxide To produce a suitable active ingredient formulation, 10 mg of active ingredient are mixed with 0.5 ml of dimethyl sulphoxide. Dilution with citrated cattle blood gives the desired concentration. About 20 unfed adult cat fleas (Ctenocephalides felis) are placed into a chamber which is closed at the top and bottom with gauze. A metal cylinder whose bottom end is closed with parafilm is placed onto the chamber. The cylinder contains the blood/active ingredient formulation, which can be imbibed by the fleas through the parafilm membrane. After 2 days, the kill in % is determined. 100% means that all of the fleas have been killed; 0% means that none of the fleas have been killed.

Spodoptera frugiperda = Spodoptera frugiperda spray test; assay type: in vivo; details: after 7 days, maize leaf discs; for pest or weed control at 100 g/ha / pest or weed control at 500 g/ha: Spodoptera frugiperda, foliar, 168 h, read-out: efficacy (caterpillars killed)
In short: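 Efficacy in % was scored at 7 days against armyworm caterpillars placed on dried, compound-sprayed Zea mays leaf discs. Compound was dissolved in acetone/dimethylformamide and diluted in water with 1000 ppm alkylaryl polyglycol ether. 100% means all caterpillars were killed.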

Phaedon cochleariae = Phaedon cochleariae spray test; assay type: in vivo; details: after 7 days, Chinese cabbage leaf discs
In short: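 Larval kill read at day 7 as percent, where 100% means every larva dead and 0% none; larvae were placed on dried Brassica pekinensis leaf discs previously sprayed with the formulation (acetone/dimethylformamide solvent, alkylaryl polyglycol ether emulsifier, water).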

[2] = acidic range at pH 2.7, 0.1% aqueous formic acid and acetonitrile, HPLC on reversed-phase column (C 18)
[3] = log P, neutral range, HPLC on reversed-phase column (C 18)
[4] = pH 2.7, LC-MS acidic range, pH 2.7, 0.1% formic acid/acetonitrile, read-out: log P (acidic) / log P (HCOOH)
[5] = pH 7.8, LC-MS neutral range, pH 7.8, ammonium hydrogencarbonate/acetonitrile, read-out: log P (neutral)
[6] = acidic range pH 2.7, 0.1% aqueous formic acid and acetonitrile, reversed-phase column (C 18)
[7] = log P (neutral), HPLC reversed-phase column (C 18)

SMILES	LOGP_HCOOH [1, 6]	LOGP_NEUTRAL [1, 7]	efficacy (beetle larvae killed) (Phaedon cochleariae; application rate 500 g/ha) [%]	efficacy (caterpillars killed) (Spodoptera frugiperda; application rate 500 g/ha) [%]	further results
O=C(NCC1CCCCC1)c1cc(-c2ccc(OC(F)(F)F)cc2)cc(NC(=O)C2CC2)n1 [Example I-167]	–	–	–	–	LOGP_HCOOH [1, 2]: 5.11; LOGP_NEUTRAL [1, 3]: 4.89; efficacy (kill in %) (Ctenocephalides felis): 90%
COC(=O)N(Cc1ccc(C#N)cc1)C(=O)c1cc(-c2ccc(OC(F)(F)F)cc2)cc(N(C(=O)OC)C(=O)C2CC2)n1 [Example I-232, Methyl (4-cyanobenzyl)({6-[(cyclopropylcarbonyl)(methoxycarbonyl)amino]-4-[4-(trifluoromethoxy)phenyl]pyridin-2-yl}carbonyl)carbamate]	–	–	–	–	LOGP_HCOOH [1, 2]: 4.30; LOGP_NEUTRAL [1, 3]: 4.31; chromatographic logP [1, 4]: 4.3; chromatographic logP [1, 5]: 4.31; pest or weed control at 100 ppm (Ctenocephalides felis; Ctenocephalides felis, po, 48 h, read-out: efficacy (kill in %)): 100%; pest or weed control at 100 g/ha (Spodoptera frugiperda; application rate 100 g/ha): 100%; pest or weed control at 500 g/ha (Spodoptera frugiperda; application rate 500 g/ha): 100%
CCONC(=O)c1cc(-c2ccc(OC(F)(F)F)cc2)cc(NC(=O)C2CC2)n1 [Example I-235]	3.21	3.14	100	–	efficacy (kill in %) (Ctenocephalides felis): 95%
N#Cc1ccc(CNC(=O)c2cc(-c3ccc(Br)c(F)c3)cc(NC(=O)C3CC3)n2)cc1 [Example I-262]	3.75	3.73	100	100	efficacy (beetle larvae killed) (Phaedon cochleariae; application rate 100 g/ha): 100%; efficacy (caterpillars killed) (Spodoptera frugiperda; application rate 100 g/ha): 100%
O=C(NC(=O)c1cc(-c2ccc(C(F)(F)C(F)(F)F)c(F)c2)cc(NC(=O)C2CC2)n1)c1ccc([N+](=O)[O-])cc1 [Example I-263]	4.57	4.54	100	100	–
O=C(NC(=O)C1CC1)c1cc(-c2ccc(C(F)(F)C(F)(F)F)c(F)c2)cc(NC(=O)C2CC2)n1 [Example I-264, N-(Cyclopropylcarbonyl)-6-[(cyclopropylcarbonyl)amino]-4-[3-fluoro-4-(pentafluoroethyl)-phenyl]pyridine-2-carboxamide]	4.62	4.53	–	–	chromatographic logP [1, 4]: 4.62; chromatographic logP [1, 5]: 4.53; pest or weed control at 100 g/ha (Phaedon cochleariae; Phaedon cochleariae, foliar, 168 h, application rate 100 g/ha, read-out: efficacy (beetle larvae killed)): 100%; pest or weed control at 500 g/ha (Phaedon cochleariae; Phaedon cochleariae, foliar, 168 h, application rate 500 g/ha, read-out: efficacy (beetle larvae killed)): 100%; pest or weed control at 100 g/ha (Spodoptera frugiperda; application rate 100 g/ha): 100%; pest or weed control at 500 g/ha (Spodoptera frugiperda; application rate 500 g/ha): 100%
N#Cc1ccc(CNC(=O)c2cc(-c3c(Cl)cc(C(F)(F)C(F)(F)F)cc3Cl)cc(NC(=O)C3CC3)n2)cc1 [Example I-265]	4.51	–	100	100	–
N#Cc1ccc(CNC(=O)c2cc(-c3c(Cl)cc(C(F)(F)C(F)(F)F)cc3Cl)cc(NC(=O)C3CC3)n2)cc1 [Example I-268]	4.05	–	83	100	efficacy (beetle larvae killed) (Phaedon cochleariae; application rate 100 g/ha): 83%; efficacy (caterpillars killed) (Spodoptera frugiperda; application rate 100 g/ha): 100%
Cc1cc(-c2cc(NC(=O)C3CC3)nc(C(=O)NCc3ccc(C#N)cc3)c2)ccc1C(F)(F)C(F)(F)F [Example I-270]	4.45	–	100	100	–
N#Cc1ccc(CNC(=O)c2cc(-c3cc(F)c(C(F)(F)C(F)(F)F)c(F)c3)cc(NC(=O)C3CC3)n2)cc1 [Example I-271]	4.23	–	83	100	–
N#Cc1ccc(CNC(=O)c2cc(-c3cc(F)c(C(F)(F)C(F)(F)F)c(F)c3F)cc(NC(=O)C3CC3)n2)cc1 [Example I-274]	4.28	–	100	100	–
N#Cc1ccc(CNC(=O)c2cc(-c3c(Cl)cc(C(F)(F)C(F)(F)F)c(F)c3Cl)cc(NC(=O)C3CC3)n2)cc1 [Example I-276]	4.57	–	100	83	–
O=C(NCc1ccncc1)c1cc(-c2ccc(C(F)(F)C(F)(F)F)c(F)c2)cc(NC(=O)C2CC2)n1 [Example I-277]	2.17	3.33	83	100	efficacy (caterpillars killed) (Spodoptera frugiperda; application rate 100 g/ha): 100%
